The subject of data set [1] is Highly Pathogenic Avian Influenza (HPAI) H7N3. It is filed as cell-based.
In data set [2] the test system is Bovine Respiratory Virus. Kind of data set: In vivo bovine feedlot study (Example 6). The arrangement: species or system calves. As to the method:
A similar in vivo bovine study as in Example 5 was conducted with one hundred and fifty-eight (158) calves. The calves were shipped into a commercial feedlot, wherein some of the animals at the feedlot were infected with BRV. The […] calves were treated with either: (1) 4 minutes of approximately 160-260 ppm nitric oxide gas (30-60 breaths); or (2) conventional antibiotic, antiviral and immunization medications. 42 calves were treated with gNO, while 116 calves were treated with conventional antibiotics.

For data set [3], the system named is influenza A virus. Kind of data set: Plaque assay in MDCK cells with virus exposed to nitric oxide gas (Example 1). The format is cell-based. The conditions noted are these: virus exposed to 160 ppm nitric oxide gas for 1, 2 and 3 hours; vs air control; FIG. 1.
Data set [4] concerns influenza A/Victoria/H3N2. In words: Plaque assay in MDCK cells with gNO-exposed virus, several concentrations and dosing techniques (Example 2). It is filed as cell-based.
Data set [5] deals with Bovine Respiratory Disease (BRD).
The subject of data set [6] is influenza A/H3N2. Kind of data set: Plaque assay in MDCK cells with gNO-exposed virus (Example 2). It is filed as cell-based.

Consider 1 molecule from patent US20070116785A1, “Nitric oxide as an anti-viral agent, vaccine and vaccine adjuvant” (priority 2005, published 2007).

“Also recorded” adds a separate entry of the source.

For the molecule `[N]=O` [gNO, Nitric oxide], the “concentration of HPAI H7N3” value in data set [1] was “about 330 PFU/mL”. The “infectivity of HPAI H7N3, continuous exposure compared with single treatment” value in data set [1] is given as “comparatively better than the single treatment”. In addition, in data set [1] (after 3 hours), the “infectivity of HPAI H7N3” value is “under 50 PFU/mL”. For the same molecule, the “calves exhibiting clinical signs of infection (Bovine Respiratory Virus)” value in data set [2] (after 15 days, 4 minutes of approximately 160-260 ppm nitric oxide gas (30-60 breaths), 4/42) was 9.5%. Moreover, the “effectiveness as antiviral agent reducing infectivity relative to conventional vaccines, antiviral agents and antibiotics” value in data set [2] (feedlot calves, 15 days) was “almost twice as effective”. Further, in data set [3], the “influenza A virus in MDCK cell cultures (plaques)” value is “significantly less influenza A virus as compared to the air control”. For the same molecule, the “infectivity of influenza A/Victoria/H3N2” value in data set [4] (40 ppm gNO continuously over 4 hours, FIG. 10) was “no effect”; in data set [4] (80 ppm gNO continuously for 4 hours, FIG. 7, 10), “not effective; also recorded: no effect”; in data set [4] (160 ppm gNO and above (160 ppm and 800 ppm), continuously over 4 hours, vs controls and lower concentrations, FIG. 11), “effective in reducing the infectivity”; in data set [4] (800 ppm gNO continuously over 4 hours, FIG. 11) it was “no real improved effect compared to 160 ppm”; in data set [4] (intermittent 160 ppm gNO, 30 minutes once every hour for 4 hours, FIG. 12), “more effective than the single 30 minute exposure; also recorded: effective as an anti-infective agent against influenza A/Victoria/H3N2”. In addition, the “concentration of influenza A/Victoria/H3N2” value in data set [4] (160 ppm gNO for 4 continuous hours, FIG. 8) was “effective in reducing the concentration of influenza A/Victoria/H3N2; also recorded: significant effect”; in data set [4] (single 30 minute exposure to 160 ppm gNO, tracked over 4 hours, FIG. 9, 12), “effective in reducing concentration of influenza A/Victoria/H3N2; also recorded: as effective as three (3) thirty (30) minute doses of gNO”. Further, the “clinical scores (industry standard signs)” value in data set [5] (160 ppm gNO, prophylactic vs early detection group, FIG. 17) was “more effective in achieving low clinical scores for the prophylactic group than for the early detection group”. Moreover, in data set [5] (160 ppm gNO, prophylactic vs early detection group, FIG. 18), the “IRT Temperature” value is on record as “more effective in achieving low IRT temperatures for the prophylactic group than for the early detection group”. Besides, the “calves' temperatures and clinical scores” value in data set [5] (NO given at Early Detection (IRT) or at Clinical Detection) is given as “rapidly resolved”. The “infection after 6 months” value in data set [5] (all NO treated animals regardless of dosing/timing, induction herd: 13 out of 15 required antibiotic treatment) is “none of the NO treated animals demonstrated infection”. Also, in data set [5] (bovine, in vivo), the prevention of infection entry is “effective in preventing infection”. The safety of delivery entry in data set [5] (bovine, in vivo) is on record as “delivered safely without incident”. For the same molecule, in data set [5] (prophylactic group, mean over 10 days, […], FIG. 16), the “Mean Temperature (IRT)” value was “roughly 36.1 °C”. Besides, the “infectivity of influenza A/H3N2” value in data set [6] (80 ppm gNO continuously for 4 hours, FIG. 4) is recorded as “not as effective as the 160 ppm concentration”. In addition, in data set [6] (160 ppm gNO for 1, 2 and 3 hours, vs room air control, FIG. 2), the “concentration of influenza A/H3N2 (viruses capable of infecting a cell)” value is given as “significantly reduced the concentration of influenza A/H3N2”. Besides, the “concentration of influenza A/H3N2” value in data set [6] (single 30 minute exposure to 160 ppm gNO, plaque assay to 20 hours after exposure, FIG. 5) was “decreases concentration of influenza A/H3N2 over 20 hours”.
